In patent publication US11807635B2, “Nitrile derivative that acts as inhibitor of dipeptidyl peptidase 1 and use thereof” (HAISCO PHARMACEUTICALS PTE. LTD, priority 2020, dated 2023):

How the values were obtained:
[1] = target: Recombinant human DPP1 enzyme (Homo sapiens (Human), UniProt P53634); assay: In vitro DPP1 enzyme activity assay; format: biochemical; conditions: recombinant human DPP1 activated with cathepsin L, substrate Gly-Arg-AMC, fluorescence; read-out: DPP1 inhibitory activity IC50
Sequence of Recombinant human DPP1 enzyme (P53634 25-134): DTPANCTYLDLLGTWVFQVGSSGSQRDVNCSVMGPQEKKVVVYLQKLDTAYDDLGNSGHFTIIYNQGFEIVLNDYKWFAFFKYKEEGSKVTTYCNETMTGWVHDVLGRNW
Sequence of Recombinant human DPP1 enzyme (P53634 231-394): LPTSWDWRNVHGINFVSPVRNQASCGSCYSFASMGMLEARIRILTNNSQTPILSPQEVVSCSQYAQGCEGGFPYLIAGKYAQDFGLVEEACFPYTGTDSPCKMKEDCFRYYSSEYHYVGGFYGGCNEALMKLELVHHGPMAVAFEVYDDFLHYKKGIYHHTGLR
Sequence of Recombinant human DPP1 enzyme (P53634 395-463): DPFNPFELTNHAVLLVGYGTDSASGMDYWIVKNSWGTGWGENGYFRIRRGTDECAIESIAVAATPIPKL
Method: Recombinant human DPP1 enzyme (R&D Systems, Cat. No. 1071-CY) at a final concentration of 100 μg/mL was mixed with recombinant human cathepsin L (R&D Systems, Cat. No. 952-CY) at a final concentration of 20 μg/mL were mixed and incubated at room temperature for 1 hour to activate the DPP1 enzyme. The activated DPP1 enzyme was diluted 100-fold, and 5 μL of compounds at different concentrations and 5 μL of the diluted DPP1 enzyme were added to a 384-well plate and incubated at room temperature for 30 minutes. […] IC50 values were calculated using the DosResp function of the Origin2019 software.

[2] = Pharmacokinetic experiment in rats; format: in vivo; conditions: rat, male SD rats, plasma; for Vd: read-out: Vdss
Method: 1.1 Test animals: Male SD rats, about 220 g, 6-8 weeks old, 6 rats/compound. The rats were purchased from CHENGDU DOSSY EXPERIMENTAL ANIMALS CO., LTD.
1.2 Test design: On the day of the experiment, 6 SD rats were randomly grouped according to their body weight. The rats were fasted but given water for 12-14 h one day before the administration, and were fed 4 h after the administration.
Before and after the administration, 0.1 ml of blood was taken from the orbit of the rats under isoflurane anesthesia and placed in an EDTAK2 centrifuge tube. The blood was centrifuged at 5000 rpm and 4° C. for 10 min to collect plasma. Blood sampling time point for the intravenous administration group: 0, 5, 15, 30 min, 1, 2, 4, 6, 8, and 24 h; and blood sampling time point for the intragastric administration group: 0, 5, 15, 30 min, 1, 2, 4, 6, 8, and 24 h. Before analysis and detection, all samples were stored at −80° C.

Compound | IC50 [1] [nM] | other results
Cc1nc(-c2ccc(C[C@@H](C#N)NC(=O)[C@@H]3CNCCCO3)c(F)c2)sc1C#N [Compound 12, (S)—N—((S)-1-cyano-2-(4-(5-cyano-4-methylthiazol-2-yl)-2-fluorophenyl)ethyl)-1,4-oxazepane-2-carboxamide] | 21 | 
N#C[C@H](Cc1ccc(-c2nc3ccccc3s2)cc1F)NC(=O)[C@@H]1CNCCCO1 [Compound 13, (S)—N—((S)-2-(4-(benzo[d]thiazol-2-yl)-2-fluorophenyl)-1-cyanoethyl)-1,4-oxazepane-2-carboxamide] | 71 | 
Cn1c(=O)oc2ccc(-c3ccc(C[C@@H](C#N)NC(=O)[C@@H]4CNCCCO4)cc3)cc21 [INS1007, reference compound] |  | AUC(0-t) ([2]; iv, intravenously 1 mg/kg): 8400 ng·h/mL; clearance ([2]; iv, intravenously 1 mg/kg): 2.08 mL/min/kg; Vd ([2]; iv, intravenously 1 mg/kg): 0.738 L/kg; bioavailability ([2]; po, intragastrically 3 mg/kg): 88.1%; AUC(0-t) ([2]; po, intragastrically 3 mg/kg): 22200 ng·h/mL
Cc1csc(-c2ccc(C[C@@H](C#N)NC(=O)[C@@H]3CNCCCO3)c(F)c2)n1 [Compound 15, (S)—N—((S)-1-cyano-2-(2-fluoro-4-(4-methylthiazol-2-yl)phenyl)ethyl)-1,4-oxazepane-2-carboxamide] | 33 | 
Cn1c(=O)oc2ccc(-c3ccc(C[C@@H](C#N)NC(=O)[C@@H]4CNCCCO4)c(F)c3)cc21 [Compound 1, (S)—N—((S)-1-cyano-2-(2-fluoro-4-(3-methyl-2-oxo-2,3-dihydrobenzo[d]oxazol-5-yl)phenyl)ethyl)-1,4-oxazepane-2-carboxamide] |  | AUC(0-t) ([2]; iv, intravenously 1 mg/kg): 9500 ng·h/mL; clearance ([2]; iv, intravenously 1 mg/kg): 1.66 mL/min/kg; Vd ([2]; iv, intravenously 1 mg/kg): 0.753 L/kg; bioavailability ([2]; po, intragastrically 3 mg/kg): > 100%; AUC(0-t) ([2]; po, intragastrically 3 mg/kg): 31200 ng·h/mL
CN1CCN(Cc2ccc(-c3ccc(C[C@@H](C#N)NC(=O)[C@@H]4CNCCCO4)c(F)c3)cc2)CC1 [Compound 14, (S)—N—((S)-1-cyano-2-(3-fluoro-4′-((4-methylpiperazin-1-yl)methyl)-[1,1′-biphenyl]-4-yl)ethyl)-1,4-oxazepane-2-carboxamide] | 12.9 | 
N#C[C@H](Cc1ccc(-c2ccc3c(c2)CCNC3=O)cc1F)NC(=O)[C@@H]1CNCCCO1 [Compound 10, (S)—N—((S)-1-cyano-2-(2-fluoro-4-(1-oxo-1,2,3,4-tetrahydroisoquinolin-6-yl)phenyl)ethyl)-1,4-oxazepane-2-carboxamide] | 6.7 | 
N#Cc1ccc(-c2ccc(C[C@@H](C#N)NC(=O)[C@@H]3CNCCCO3)c(F)c2)cc1C1CC1 [Compound 17, (S)—N—((S)-1-cyano-2-(4′-cyano-3′-cyclopropyl-3-fluoro-[1,1′-biphenyl]-4-yl)ethyl)-1,4-oxazepane-2-carboxamide] | 7.4 | 
Cn1c(=O)oc2ccc(-c3cc(F)c(C[C@@H](C#N)NC(=O)[C@@H]4CNCCCO4)cn3)cc21 [Compound 35, (S)—N—((S)-1-cyano-2-(4-fluoro-6-(3-methyl-2-oxo-2,3-dihydrobenzo[d]oxazol-5-yl)pyridin-3-yl)ethyl)-1,4-oxazepane-2-carboxamide] | 4 | 
N#C[C@H](Cc1ccc(C#CC2CCCC2)cc1F)NC(=O)[C@@H]1CNCCCO1 [Compound 11, (S)—N—((S)-1-cyano-2-(4-(cyclopentylethynyl)-2-fluorophenyl)ethyl)-1,4-oxazepane-2-carboxamide] | 239 | 
COC1CNCC(C(=O)N[C@H](C#N)Cc2ccc(-c3ccc(S(F)(F)(F)(F)F)cc3)cc2F)OC1 (stereo partly drawn) [Compound 43, N—((S)-1-cyano-2-(3-fluoro-4′-(pentafluoro-16-sulfanyl)-[1,1′-biphenyl]-4-yl)ethyl)-6-methoxy-1,4-oxazepane-2-carboxamide] | 0.3 | 
N#Cc1ccc(-c2ccc(C[C@@H](C#N)NC(=O)[C@@H]3CNCCCO3)c(F)c2)cc1C(F)(F)F [Compound 29, (S)—N—((S)-1-cyano-2-(4′-cyano-3-fluoro-3′-(trifluoromethyl)-[1,1′-biphenyl]-4-yl)ethyl)-1,4-oxazepane-2-carboxamide] | 4.9 | 
